Literature values as cited in patent publication US9937154B2, “Use of telmisartan to prevent and treat graft versus host disease and other alloimmune and autoimmune diseases” (Hackensack University Medical Center, priority 2015, dated 2018).
Where two headings read alike, the source gives them in different places.

Key:
ROCK = conditions: cited from earlier work
rat colitis = conditions: chemically induced acute colitis, cited from earlier work
lymphocyte chemotaxis = conditions: in part SDF-1 induced chemotaxis; cited from earlier work
[1] = test system: corneal neovascularization; conditions: corneal systems; cited from earlier work
[2] = test system: Tregs:autoreactive Th17 cells; conditions: cited from earlier work
[3] = test system: patients with mild to moderate hypertension; conditions: cited from earlier work
cytochrome P450 enzymes = conditions: cited from earlier work
CYP2C19 = CYP2C19 (Homo sapiens, UniProt P33261); conditions: in vitro; cited from earlier work
[4] = cited from earlier work
[5] = cited from earlier work; remark: listed apart in the source
[6] = 80 or 160 mg per day; cited from earlier work
[7] = test system: patients treated with MICARDIS; conditions: cited from earlier work
[8] = test system: plasma proteins, mainly albumin and orosomucoid; conditions: cited from earlier work

Sequence of CYP2C19 (P33261 whole entry): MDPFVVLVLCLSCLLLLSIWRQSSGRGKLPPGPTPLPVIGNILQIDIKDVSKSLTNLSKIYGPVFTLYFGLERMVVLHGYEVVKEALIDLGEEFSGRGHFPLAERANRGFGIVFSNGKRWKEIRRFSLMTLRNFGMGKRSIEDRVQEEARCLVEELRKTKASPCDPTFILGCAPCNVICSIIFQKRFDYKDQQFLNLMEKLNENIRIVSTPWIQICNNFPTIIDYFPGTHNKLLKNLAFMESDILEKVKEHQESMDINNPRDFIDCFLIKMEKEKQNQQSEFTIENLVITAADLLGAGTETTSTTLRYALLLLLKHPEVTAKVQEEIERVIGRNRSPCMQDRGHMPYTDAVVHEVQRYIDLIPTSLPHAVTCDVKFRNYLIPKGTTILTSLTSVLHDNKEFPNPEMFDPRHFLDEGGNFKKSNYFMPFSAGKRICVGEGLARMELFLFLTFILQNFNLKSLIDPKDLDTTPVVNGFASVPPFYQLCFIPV

For CCCc1nc2c(C)cc(-c3nc4ccccc4n3C)cc2n1Cc1ccc(-c2ccccc2C(=O)O)cc1 [Telmisartan, telmisartan], the “potency as ROCK inhibitor compared with Y-27632” value (ROCK) is given as “as potent an inhibitor of ROCK as Y-27632”, the effect on colitis (rat colitis; listed as telmisartan) is given as “anti-inflammatory effects” and the effect on colitis (rat colitis) is given as “protective effect against rat colitis”. For the same compound, the lymphocyte chemotaxis (lymphocyte chemotaxis) was “abrogate lymphocyte chemotaxis”, the neovascularization [1] was “prevent neovascularization” and the “ratio of protective Tregs:autoreactive Th17 cells” value [2] was “increase the ratio”. For the same compound, the “DBP reduction from baseline after placebo subtraction” value (from here on “DBP reduction from baseline”) ([3]; 20 mg once daily) was about 6 mm Hg, the “SBP reduction from baseline after placebo subtraction” value (“SBP reduction from baseline” below) ([3]; 20 mg once daily) was 6-8 mm Hg and the “DBP reduction from baseline” value ([3]; 40 mg once daily) was 6-8 mm Hg. The “SBP reduction from baseline” value ([3]; 40 mg once daily) was 9-13 mm Hg, the “DBP reduction from baseline” value ([3]; 80 mg once daily) was 7-8 mm Hg and the “SBP reduction from baseline” value ([3]; 80 mg once daily) was 12-13 mm Hg. The “time to maximal blood pressure reduction” value ([3]; after initiation of treatment) was about 4 weeks, the “incidence of symptomatic orthostasis” value ([3]; after the first dose, all controlled trials) was 0.04% and the “metabolism by the cytochrome P450 system” value (cytochrome P450 enzymes) was “not metabolized”. The “effects in vitro on cytochrome P450 enzymes” value (cytochrome P450 enzymes; except CYP2C19) was “no effects”, the “inhibition of CYP2C19” value (CYP2C19) was “some inhibition” and the “reduction in AUC by food” value ([4]; 40 mg tablet) was “about 6%”. For the same compound, the “reduction in AUC by food” value ([4]; 160 mg dose) was “about 20%”, the terminal elimination half-life ([4]; in vivo) was “approximately 24 hours” and the volume of distribution ([4]; in vivo) was “approximately 500 liters”. For the same compound, the “amount found in urine” value ([5]; intravenous administration) was 0.91 % of total radioactivity, the “administered dose eliminated unchanged in feces via biliary excretion” value ([5]; intravenous or oral 14C-labeled telmisartan) was over 97% and the “amount found in urine” value ([5]; oral administration) was 0.49 % of total radioactivity. The “incidence of reported poor tolerability” value [6] was 0.5%, the incidence of cough ([7]; 6 placebo-controlled trials, identical to placebo) was 1.6% and the “incidence of back pain” value ([7]; n = 1455) was 3%. The incidence of diarrhea ([7]; n = 1455) was 3%, the incidence of pharyngitis ([7]; n = 1455) was 1% and the incidence of sinusitis ([7]; n = 1455) was 3%. For the same compound, the “incidence of upper respiratory tract infection” value ([7]; n = 1455) was 7%, the “discontinuation of therapy because of adverse events” value ([7]; of 1455 patients, placebo-controlled clinical trials) was 2.8% and the “bound to plasma proteins” value [8] was over 99.5%.
